The target in one test is human CB2R (Homo sapiens, UniProt P34972). Nature of the test: CB2R mediated modulation of cAMP synthesis. It counts as cell-based.
Chain of human CB2R (P34972 whole entry): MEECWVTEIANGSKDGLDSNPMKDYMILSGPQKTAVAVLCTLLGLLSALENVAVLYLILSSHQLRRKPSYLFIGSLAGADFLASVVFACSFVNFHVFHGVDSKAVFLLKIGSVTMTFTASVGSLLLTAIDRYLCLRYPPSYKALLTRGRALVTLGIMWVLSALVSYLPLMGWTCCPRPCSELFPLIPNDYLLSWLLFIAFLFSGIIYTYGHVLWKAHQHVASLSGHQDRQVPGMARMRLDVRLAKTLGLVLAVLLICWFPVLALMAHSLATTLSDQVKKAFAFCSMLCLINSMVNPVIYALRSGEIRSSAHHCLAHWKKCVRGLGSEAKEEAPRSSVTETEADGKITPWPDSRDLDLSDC
Conditions: not given
On the procedure: B. CB2R Mediated Modulation of cAMP Synthesis:
Compounds of the invention were evaluated for their CB2 agonist or inverse agonistic activity in accordance with the following experimental method.
CHO cells expressing human CB2R (Euroscreen) were plated at a density of 5000 cells per well in 384 well plates and incubated overnight at 37° C. After removing the media, the cells were treated with test compounds diluted in stimulation buffer containing 1 mM IBMX, 0.25% BSA and 10 uM Forskolin. The assay was incubated for 30 minutes at 37° C. Cells were lysed and the cAMP concentration was measured using DiscoverX-XS cAMP kit, following the manufacturer's protocol. In this setting, agonists will decrease forskolin induced production of cAMP while inverse agonists will further increase forskolin induced production of cAMP. EC50 of agonists were calculated as follows. The maximal amount of cAMP produced by forskolin compared to the level of cAMP inhibited by 1 uM CP55940 is defined as 100%. […] Data was analyzed using a four-parameter logistic model. (Model 205 of XLfit 4.0).
Turning to `COCC(C)(C)c1cc(NC(=O)[C@@H]2C[C@@H](O)CN2c2ccc(Cl)cc2)on1` [(2S,4R)-1-(4-Chloro-phenyl)-4-hydroxy-pyrrolidine-2-carboxylic acid [3-(2-methoxy-1,1-dimethyl-ethyl)-isoxazol-5-yl]-amide], the midpoint of the response, the EC50, lay at 87 nM. `O=C(Nc1nc2cc(Cl)c(Cl)cc2[nH]1)[C@@H]1CCCN1CC1CCOCC1` [(S)-1-(Tetrahydro-pyran-4-ylmethyl)-pyrrolidine-2-carboxylic acid (5,6-dichloro-1H-benzimidazol-2-yl)-amide] showed an EC50 of 56.2 nM.

The molecule `O=C(Nc1nnc(-c2ccccc2)s1)[C@@H]1CCCN1c1ccc(Cl)cc1` [(S)-1-(4-Chloro-phenyl)-pyrrolidine-2-carboxylic acid (5-phenyl-1,3,4-thiadiazol-2-yl)-amide] gave an EC50 of 11.2 nM. On the same count and under the same terms, the same measure for `CC(C)(C)c1nnc(NC(=O)[C@@H]2CCCN2C2CCCCC2)s1` [(S)-1-Cyclohexyl-pyrrolidine-2-carboxylic acid (5-tert-butyl-1,3,4-thiadiazol-2-yl)-amide]: 30 nM; for `O=C(Nc1nc2cc(Cl)ccc2[nH]1)[C@@H]1CCCN1c1ccc(Cl)cc1` [(S)-1-(4-Chloro-phenyl)-pyrrolidine-2-carboxylic acid (5-chloro-1H-benzimidazol-2-yl)-amide]: 2.16 nM.

In turn, `CC(C)(C)c1cc(NC(=O)[C@@H]2CCC(=O)N2c2ccc(C(F)(F)F)c(F)n2)on1` [(S)-1-(6-Fluoro-5-trifluoromethyl-pyridin-2-yl)-5-oxo-pyrrolidine-2-carboxylic acid (3-tert-butyl-isoxazol-5-yl)-amide] showed an EC50 of 8.05 nM. With `CC(C)(C)C1CCC(NC(=O)[C@@H]2CCCN2c2ccc(Cl)cc2)CC1` (stereo partly drawn) [(S)-1-(4-Chloro-phenyl)-pyrrolidine-2-carboxylic acid (4-tert-butyl-cyclohexyl)-amide], a half-maximal effect (EC50) was put at 7.42 nM.

As to `CCC(C)CN1CCC[C@H]1C(=O)Nc1cc(C(C)(C)C)no1` (stereo partly drawn) [(S)-1-(2-Methyl-butyl)-pyrrolidine-2-carboxylic acid (3-tert-butyl-isoxazol-5-yl)-amide], a half-maximal effect (EC50) was put at 0.116 nM. Turning to `CC(C)(C)c1cc(NC(=O)[C@@H]2CCC(=O)N2c2ccc(Cl)cc2)sn1` [(S)-1-(4-Chloro-phenyl)-5-oxo-pyrrolidine-2-carboxylic acid (3-tert-butyl-isothiazol-5-yl)-amide], the EC50 is 135 nM.

Consider `CC(C)(C)c1cc(NC(=O)[C@@H]2C[C@@H](O)CN2C2CCCC2)no1` [(2S,4R)-1-Cyclopentyl-4-hydroxy-pyrrolidine-2-carboxylic acid (5-tert-butyl-isoxazol-3-yl)-amide], for which the EC50 stood at 23.2 nM. On the same count and under the same terms, the same measure for `CC(C)(C)c1cccc(NC(=O)[C@@H]2CCC(=O)N2c2ccc(Cl)cc2)c1` [(S)-1-(4-Chloro-phenyl)-5-oxo-pyrrolidine-2-carboxylic acid (3-tert-butyl-phenyl)-amide]: 58.7 nM; for `CC(C)(C)c1cc(NC(=O)[C@@H]2CCCN2S(=O)(=O)c2ccc(S(C)(=O)=O)cc2)no1` [(S)-1-(4-Methanesulfonyl-benzenesulfonyl)-pyrrolidine-2-carboxylic acid (5-tert-butyl-isoxazol-3-yl)-amide]: 183 nM. With `CC(C)(C)c1cc(NC(=O)[C@@H]2CCCN2CC2CC2)on1` [(S)-1-Cyclopropylmethyl-pyrrolidine-2-carboxylic acid (3-tert-butyl-isoxazol-5-yl)-amide], a half-maximal effect (EC50) was put at 11.4 nM. Regarding `CC(C)(C)c1cc(NC(=O)[C@@H]2CCC(=O)N2c2ccc(C#N)cc2)no1` [(S)-1-(4-cyano-phenyl)-5-oxo-pyrrolidine-2-carboxylic acid (5-tert-butyl-isoxazol-3-yl)-amide], the EC50 stood at 59.9 nM. As for `CC(C)(C)c1cc(NC(=O)[C@@H]2CCCN2c2ncc(Cl)cc2Cl)on1` [(S)-1-(3,5-Dichloro-pyridin-2-yl)-pyrrolidine-2-carboxylic acid (3-tert-butyl-isoxazol-5-yl)-amide], the midpoint of the response, the EC50, lay at 0.135 nM. The molecule `O=C(Nc1ccc(C(F)(F)F)cn1)[C@@H]1CCCN1c1ccc(C(F)(F)F)cc1` [(S)-1-(4-Trifluoromethyl-phenyl)-pyrrolidine-2-carboxylic acid (5-trifluoromethyl-pyridin-2-yl)-amide] displayed an EC50 of 15.5 nM.

For `O=C(NCCC1CCOCC1)[C@@H]1CCCN1c1ccc(Cl)cc1` [(S)-1-(4-Chloro-phenyl)-pyrrolidine-2-carboxylic acid [2-(tetrahydro-pyran-4-yl)-ethyl]-amide], the EC50 was determined as 105 nM. On the same count and under the same terms, the same measure for `COCC(C)(C)c1cc(NC(=O)[C@@H]2CCC(=O)N2c2ccc(C(F)(F)F)cc2)no1` [(S)-5-Oxo-1-(4-trifluoromethyl-phenyl)-pyrrolidine-2-carboxylic acid [5-(2-methoxy-1,1-dimethyl-ethyl)-isoxazol-3-yl]-amide]: 15.2 nM.

`CC(C)(C)c1cc(NC(=O)[C@@H]2CCC(=O)N2c2ccc(F)c(F)c2)on1` [(S)-1-(3,4-Difluoro-phenyl)-5-oxo-pyrrolidine-2-carboxylic acid (3-tert-butyl-isoxazol-5-yl)-amide] registered an EC50 of 16 nM. Regarding `CCc1ccnc(NC(=O)[C@@H]2CCCN2c2ccc(Cl)cc2)c1` [(S)-1-(4-Chloro-phenyl)-pyrrolidine-2-carboxylic acid (4-ethyl-pyridin-2-yl)-amide], a half-maximal response (EC50) required 1.2 nM. In turn, `CCCc1cc(NC(=O)[C@@H]2CCCN2c2ccc(Cl)cc2)on1` [(S)-1-(4-Chloro-phenyl)-pyrrolidine-2-carboxylic acid (3-propyl-isoxazol-5-yl)-amide] registered an EC50 of 2.41 nM. Still for that read-out and setting: the value for `CC(C)(C)c1cc(NC(=O)[C@@H]2CCC(=O)N2c2ccccn2)on1` [(S)-5-Oxo-1-pyridin-2-yl-pyrrolidine-2-carboxylic acid (3-tert-butyl-isoxazol-5-yl)-amide] was 136 nM; that for `O=C(Nc1nc(-c2ccccc2)ns1)[C@@H]1CCCN1c1ccc(Cl)cc1` [(S)-1-(4-Chloro-phenyl)-pyrrolidine-2-carboxylic acid (3-phenyl-1,2,4-thiadiazol-5-yl)-amide] was 4.85 nM.

In turn, `CCC(C)N1CCC[C@H]1C(=O)Nc1nnc(C(C)(C)C)s1` (stereo partly drawn) [1-sec-Butyl-pyrrolidine-2-carboxylic acid (5-tert-butyl-1,3,4-thiadiazol-2-yl)-amide] displayed a half-maximal effective concentration (EC50) of 390 nM. The same measure, in the same setting: the same measure for `CC(C)(C)c1cc(NC(=O)[C@@H]2CCC(=O)N2c2ccc(F)c(F)c2)no1` [(S)-1-(3,4-Difluoro-phenyl)-5-oxo-pyrrolidine-2-carboxylic acid (5-tert-butyl-isoxazol-3-yl)-amide]: 64.2 nM; for `CC(C)(C)c1nnc(NC(=O)[C@@H]2CCCN2CCCO)s1` [(S)-1-(3-Hydroxy-propyl)-pyrrolidine-2-carboxylic acid (5-tert-butyl-1,3,4-thiadiazol-2-yl)-amide]: 320 nM; for `CC(C)(C)OC(=O)CN1CCC[C@H]1C(=O)Nc1cc(C(C)(C)C)no1` [[(S)-2-(3-tert-Butyl-isoxazol-5-ylcarbamoyl)-pyrrolidin-1-yl]-acetic acid tert-butyl ester]: 0.1 nM. Regarding `C=Cc1ccc(N2C(=O)CC[C@H]2C(=O)Nc2cc(C(C)(C)C)on2)cc1` [(S)-5-Oxo-1-(4-vinyl-phenyl)-pyrrolidine-2-carboxylic acid (5-tert-butyl-isoxazol-3-yl)-amide], the EC50 was 70 nM. On the same count and under the same terms, the value for `CC(C)(C)c1cc(NC(=O)[C@@H]2CCC(=O)N2c2ccc(Cl)c(F)c2)no1` [(S)-1-(4-Chloro-3-fluoro-phenyl)-5-oxo-pyrrolidine-2-carboxylic acid (5-tert-butyl-isoxazol-3-yl)-amide] was 12.7 nM; that for `CC(C)(C)c1cc(NC(=O)[C@@H]2CCC(=O)N2c2ccc(Cl)cn2)on1` [(S)-1-(5-Chloro-pyridin-2-yl)-5-oxo-pyrrolidine-2-carboxylic acid (3-tert-butyl-isoxazol-5-yl)-amide] was 3.44 nM; that for `CC(C)(C)c1cc(NC(=O)[C@@H]2CCCN2Cc2ccc(F)c(F)c2)on1` [(S)-1-(3,4-Difluoro-benzyl)-pyrrolidine-2-carboxylic acid (3-tert-butyl-isoxazol-5-yl)-amide] was 0.208 nM.

The molecule `CC(C)(C)c1cc(NC(=O)[C@@H]2CCCN2Cc2ccc(Cl)cc2)on1` [(S)-1-(4-Chloro-benzyl)-pyrrolidine-2-carboxylic acid (3-tert-butyl-isoxazol-5-yl)-amide] yielded an EC50 of 2.28 nM.

The same test, now with this note: CHO cells expressing human CB2R; inhibition of forskolin-stimulated cAMP synthesis; mean; read-out: CB2 CAMP @ EC50 nM (mean).
In the case of `CCC(C)c1cc(NC(=O)[C@@H]2CCC(=O)N2c2ccc(Cl)cc2)on1` (stereo partly drawn) [(S)-1-(4-Chloro-phenyl)-5-oxo-pyrrolidine-2-carboxylic acid (3-sec-butyl-isoxazol-5-yl)-amide], the EC50 amounted to 104 nM. In the case of `Cc1ccc(N2C(=O)CC[C@H]2C(=O)Nc2cc(C(C)(C)C)on2)cc1Cl` [(S)-l-(3-Chloro-4-methyl-phenyl)-5-oxo-pyrrolidine-2-carboxylic acid (5-tert-butyl-isoxazol-3-yl)-amide], the EC50 was 333 nM. In the case of `O=C(Nc1ccc(C(F)(F)F)cn1)C1CCCN1c1ncc(C(F)(F)F)cc1Cl` (stereo not drawn) [1-(3-Chloro-5-trifluoromethyl-pyridin-2-yl)-pyrrolidine-2-carboxylic acid (5-trifluoromethyl-pyridin-2-yl)-amide], the EC50 was found to be 23.2 nM. Still for that read-out and setting: the value for `CC(C)(C)c1nnc(NC(=O)[C@@H]2CCCN2C2CC2)s1` [(S)-1-Cyclopropyl-pyrrolidine-2-carboxylic acid (5-tert-butyl-1,3,4-thiadiazol-2-yl)-amide] was 109 nM.

One may read the EC50 as the concentration at which the effect is half-maximal.

The values above are taken from patent publication US8629157B2, “Pyrrolidine compounds which modulate the CB2 receptor” (Boehringer Ingelheim International GmbH, priority 2009, dated 2014).
